Assay results published in US20190216830A1, “OPHTHALMIC COMPOSITIONS” (Aciont Inc., priority 2017, published 2019).
“And” between values parts separate entries of the source, which are not always exact repeats. Equal values may be shown once.

How the values were obtained:
[1] = Toxicokinetic study: plasma DSP and DEX by LC-MS after single device application; assay type: in vivo, New Zealand White rabbits; details: after DSP application via device; all four regimens
Description: For the toxicokinetic study, there were four groups of rabbit. […] Blood was collected and processed for plasma at predose, 5, 30, 60, 120, 240, and 360 minutes, and 24, 48, 72, 96, and 168 hours after administration.
One drop of sterile proparacaine hydrochloride (a local anesthetic) was put on the eye (to be treated) 5 minutes before dose administration. […] The position of the device was checked to ensure that the active agent matrix was in immediate contact with the white part of the eye but not the cornea. Digital timers were used for accurate application times (i.e., 5, 10, or 20 minutes). After the given application duration, the applicator was carefully removed from the eye.
Approximately 1 mL of blood was collected by direct venipuncture of the jugular vein with a 3 mL syringe and 21 GA×1″ needle. […]
Briefly, the samples were assayed by Shimadzu SCL-10A controller with LC-10AD pump. […] The limit of quantitation (LOQ) of this method was 1 ng/mL.
Toxicokinetic data analysis was based on standard noncompartmental pharmacokinetic methods. […] The maximum observed plasma concentration (Cmax) was determined by visual estimation from the data plot. Area under the plasma concentration vs. time curve from 0 to the time of the last measurable concentration (AUC) was calculated by the linear trapezoidal method. […]

[2] = test system: rabbit coronary microvessel endothelium; details: cited from earlier work
[3] = test system: treated eyes (right eye); details: rabbit, in vivo
Description: Ketamine hydrochloride injectable USP (100 mg/mL) and sodium chloride 0.9% USP were from Hospira, Inc. (Lake Forest, Ill.); proparacaine hydrochloride ophthalmic solution was from Bausch & Lomb (Tampa, Fla.); cyclopentolate hydrochloride ophthalmic solution was from Alcon Laboratories (Fort Worth, Tex.); xyrazine and potassium chloride (KCl) were from Sigma-Aldrich (St. Louis, Mo.). Syringes and needles were from Becton, Dickinson and Company (Franklin Lakes, N.J.). The binocular indirect ophthalmoscope used was the Keeler All Pupil II from Keeler Instruments (Broomall, Pa.) and it was complemented with the double aspheric lens 20D/50 mm for posterior chamber examination from Volk Optical Inc (Mentor, Ohio). Young adult New Zealand White rabbits each weighing 3-4 kg were obtained from Western Oregon Rabbit Co. (Philomath, Oreg.). This study complied with the ARVO Statement for the use of Animals in Ophthalmic and Vision Research and was approved by The University of Utah Institutional Animal Care and Use Committee (Salt Lake City, Utah). All animals were acclimated and observed for health issues for at least two weeks prior to being used in the study.
For the ocular toxicity study, there were four groups. […]
Body weights of the animal were taken upon arrival, and then monthly. […] Observations on the anterior and posterior segments of the eye were made, graded, and recorded. […]

Structure (SMILES)	Tmax of DEX in plasma [1]	Concentration that can inhibit prostaglandin release [2]	Ocular findings in treated eyes (conjunctival injection, discharge, corneal haze) [3]
C[C@@H]1C[C@H]2[C@@H]3CCC4=CC(=O)C=C[C@]4(C)[C@@]3(F)[C@@H](O)C[C@]2(C)[C@@]1(O)C(=O)CO [DEX, dexamethasone]	30 min	10^−7 M and ~40 ng/mL	–
C[C@@H]1C[C@H]2[C@@H]3CCC4=CC(=O)C=C[C@]4(C)[C@@]3(F)[C@@H](O)C[C@]2(C)[C@@]1(O)C(=O)COP(=O)(O)O [DSP, Dexamethasone sodium phosphate]	–	–	transient and mild in nature
